In US5470833A, “Endothelin antagonistic peptide derivatives” (Banyu Pharmaceutical Co., Ltd., priority 1990, dated 1995):
Where two headings read alike, the source gives them in different places. Each block holds one compound with its values, some of them ahead of it. Numbered stars: 1 amine (or outer) side, 2 acyl side, 3 side chain; on linkers, the order of the positions; unused ones are H or OH. Square brackets hold non-standard residues; d marks the D form. Peptide text beside a SMILES is read from it. * marks the point of attachment. Nva = CCC[C@H](N)C(=O)O; Boc = CC(C)(C)OC(=O)*; CO = O=C([*:1])[*:2]; Ahx = NCCCCCC(=O)O; βAla = NCCC(=O)O; NHiPr = CC(C)N*

Tests used:
[1] = test system: isolated guinea pig trachea; test: Activities against endothelin-induced contraction of isolated guinea pig trachea; settings: 6 μM compound; for shift of the concentration-response curve for endothelin-1: added 20 minutes prior to endothelin-1
Procedure: The trachea of a guinea pig was extracted, and the trachea was cut into rings to afford a preparation.
Endothelin-1 was added into the organ bath in a cumulatively increasing manner, and the influence of a compound of the present invention to the concentration-response curve for endothelin was examined. The compound was added into the organ bath 20 minutes prior to the addition of endothelin-1.

[2] = test system: isolated porcine coronary artery; test: Activities against endothelin-induced contraction of isolated porcine coronary arteries; set-up: species or system pig; settings: for shift of the concentration-response curve of endothelin-1: added 20 minutes prior to endothelin-1
Procedure: The coronary artery of pig was extracted, and a spiral preparation having a width of 1 mm and a length of 10 mm was prepared therefrom.
Endothelin-1 was added into the organ bath in a cumulatively increasing manner, whereby the influence of a compound of the present invention to the concentration-response curve for endothelin-1 was examined. The compound was added into the organ bath 20 minutes prior to the addition of endothelin-1.

[3] = test system: isolated rat heart; test: Effects on the increased perfusion pressure induced by endothelin in isolated rat heart (Langendorff)
Procedure: The heart of a male Sprague Dohrie (SD) rat was extracted, and the perfusion pressure was measured and recorded according to the Langendorff's method.
Endothelin-1 was cumulatively added to the perfusate, whereby the influence of a compound of the present invention to the concentration-response curve for endothelin-1 was examined. The compound which was dissolved in the perfusate had been infused from 20 minutes prior to the addition of endothelin-1 till just after finishing measurement of the concentration-response curve for endothelin-1.

[4] = molecular target: T1, endothelin receptor (membrane of smooth muscle tissue of porcine aorta) (Sus scrofa, UniProt Q29010); test: Endothelin binding inhibition test (125I-endothelin-1, porcine aorta smooth muscle membrane); settings: read-out: 125I-endothelin-1 binding inhibition; for inhibition at 10 µM: 10 μM test compound (marked *)
T1 construct: from tissue; host or cells: porcine aorta smooth muscle, membrane fraction
T1 sequence (Q29010 21-427): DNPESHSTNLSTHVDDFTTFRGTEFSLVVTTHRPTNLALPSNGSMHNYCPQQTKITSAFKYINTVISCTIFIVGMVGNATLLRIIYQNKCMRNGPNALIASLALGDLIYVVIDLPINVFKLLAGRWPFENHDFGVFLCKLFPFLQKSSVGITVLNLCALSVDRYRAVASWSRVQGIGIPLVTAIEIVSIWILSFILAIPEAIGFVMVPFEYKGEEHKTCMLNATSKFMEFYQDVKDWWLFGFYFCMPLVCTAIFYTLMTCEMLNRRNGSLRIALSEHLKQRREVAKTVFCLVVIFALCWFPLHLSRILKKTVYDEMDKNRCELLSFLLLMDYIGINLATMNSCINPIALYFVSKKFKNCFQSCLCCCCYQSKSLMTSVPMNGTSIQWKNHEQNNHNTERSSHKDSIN
Procedure: The smooth muscle tissue of porcine aorta was homogenized in a buffer solution of 10 mM MOPS, pH 7.4, at 4° C. by a polytron. To the homogenate, sucrose was added to a concentration of 20%, and the mixture was centrifuged at 1,000×g for 15 minutes, and the supernatant was further centrifuged at 10,000×g for 15 minutes. The supernatant thereof was further centrifuged at 90,000×g for 40 minutes. The membrane precipitate thereby obtained was suspended in a buffer solution of 5 mM HEPES/Tris, pH 7.4, at a concentration of 25 mg/ml.
Then, 16 μl of this membrane suspension was added to 340 μl of 50 mM Tris/HCl buffer, pH 7.4, containing 10 μM calcium chloride, 10 μM magnesium chloride, 0.1 mM PMSF, 1 μM pepstatin A, 2 μM leupeptin, 1 mM 1,10-phenanthroline and 0.1% bovine serum albumin. To this suspension, 4 μl of (A) endothelin-1 (for nonspecific binding; 0.2 μM as the final concentration), (B) buffer solution A (for total control binding), or (C) a test compound (1.1 μM or 10 μM as the final concentration),was added. Further, to each suspension, 40 μl of ^125 I-endothelin-1 (12000-18000 cpm) was added. These mixtures were incubated at 25° C. for 4 hours, then subjected to filtration on a glass filter GF/C and then washed with 5 mM HEPES/Tris, pH 7.4, containing 0.3% bovine serum albumin. Then, the radioactivity trapped by the glass filter was measured, and the ^125 I-endothelin-1 binding inhibition D (%) at 1.1 μM or 10 μM of the test compound was determined by the following equation. [formula] Each test was performed in triplicate.
The test compounds are indicated by Compound Nos.

Compound: CC(C)C[C@H](NC(=O)N1CCCCCC1)C(=O)N[C@H](Cc1c[nH]c2ccccc12)C(=O)N[C@H](Cc1c[nH]c2ccccc12)C(=O)O [Compound 50]
maximum response to endothelin-1 [1]: did not affect the maximum response | shift of the concentration-response curve for endothelin-1 [1]: remarkably shifted the concentration-response curves for endothelin-1 to the right | maximum response to endothelin-1 ([2]; 2 μM compound): did not affect the maximum response | shift of the concentration-response curve of endothelin-1 ([2]; 2 μM compound): remarkably shifted the concentration-response curves of endothelin-1 to the right | maximum response to endothelin-1 (perfusion pressure) ([3]; 1 μM compound): did not affect the maximum response | shift of the concentration-response curve for endothelin-1 (perfusion pressure) ([3]; 1 μM compound in perfusate from 20 minutes prior to endothelin-1): moved the concentration-response curve for endothelin-1to the right | inhibition at 1.1 µM [4]: 87%

inhibition at 1.1 µM ([4]; 1.1 μM test compound (no mark)): 78%
Compound: CC(C)C[C@H](NC(=O)N1CCCCCC1)C(=O)N[C@H](Cc1c[nH]c2ccccc12)C(=O)NCCC(=O)O [Compound 93]
maximum response to endothelin-1 [1]: did not affect the maximum response | shift of the concentration-response curve for endothelin-1 [1]: remarkably shifted the concentration-response curves for endothelin-1 to the right | maximum response to endothelin-1 ([2]; 6 μM compound): did not affect the maximum response | shift of the concentration-response curve of endothelin-1 ([2]; 6 μM compound): remarkably shifted the concentration-response curves of endothelin-1 to the right

inhibition at 1.1 µM ([4]; 1.1 μM test compound (no mark)): 84%
Compound: CC(C)C[C@H](NC(=O)N1CCCC1(C)C)C(=O)N[C@H](Cc1c[nH]c2ccccc12)C(=O)N[C@H](Cc1c[nH]c2ccccc12)C(=O)O [Compound 173]

inhibition at 1.1 µM ([4]; 1.1 μM test compound (no mark)): 70%
Compound: CC(C)C[C@H](NC(=O)N1C(C)(C)CCCC1(C)C)C(=O)N[C@H](Cc1c[nH]c2ccccc12)C(=O)NCCC(=O)O [Compound 74]

inhibition at 1.1 µM ([4]; 1.1 μM test compound (no mark)): 87%
Compound: CC(C)C[C@H](NC(=O)N(CC(C)C)C1CCCC1)C(=O)N[C@H](Cc1c[nH]c2ccccc12)C(=O)N[C@H](Cc1c[nH]c2ccccc12)C(=O)O [Compound 172]

inhibition at 1.1 µM ([4]; 1.1 μM test compound (no mark)): 86%
Compound: CC(C)C[C@H](NC(=O)N1CCCCCC1)C(=O)N[C@H](Cc1cn(C=O)c2ccccc12)C(=O)N[C@H](Cc1c[nH]cn1)C(=O)O [Compound 156]

inhibition at 1.1 µM ([4]; 1.1 μM test compound (no mark)): 63%
Compound: CC(C)C[C@H](NC(=O)C=C1SC=CS1)C(=O)N[C@H](Cc1c[nH]c2ccccc12)C(=O)NCCC(=O)O [Compound 67]

inhibition at 10 µM [4]: 36%
Compound: CC(C)C[C@H](NC(=O)OC(C)(C)C)C(=O)N[C@H](Cc1c[nH]c2ccccc12)C(=O)N[C@@H](C(=O)O)C(C)C [Compound 43] (Boc-Leu-[dW]-[dV]-OH)

inhibition at 1.1 µM ([4]; 1.1 μM test compound (no mark)): 68%
Compound: COC(=O)C[C@@H](C)NC(=O)[C@@H](Cc1c[nH]c2ccccc12)NC(=O)[C@H](CC(C)C)NC(=O)N1CCCCCC1 [Compound 51]

inhibition at 1.1 µM ([4]; 1.1 μM test compound (no mark)): 40%
Compound: CCOC(=O)CCNC(=O)[C@@H](Cc1c[nH]c2ccccc12)NC(=O)[C@H](CC(C)C)NC(=O)N1CCCCCC1 [Compound 92]

Compound: CC(C)C[C@H](NC(=O)N1CCCCCC1)C(=O)N[C@H](Cc1c[nH]c2ccccc12)C(=O)NCCC(=O)NS(=O)(=O)c1ccccc1 [Compound 157]
inhibition at 1.1 µM [4]: 69%

inhibition at 10 µM [4]: 55%
Compound: CC(C)C[C@H](NC(=O)NC(C)C)C(=O)N[C@H](Cc1c[nH]c2ccccc12)C(=O)NCC(=O)O [Compound 89] ({NHiPr-CO}-Leu-[dW]-Gly-OH)

inhibition at 1.1 µM ([4]; 1.1 μM test compound (no mark)): 38%
Compound: CCC[C@H](NC(=O)OC(C)(C)C)C(=O)N[C@H](Cc1c[nH]c2ccccc12)C(=O)NCCC(=O)O [Compound 28] (Boc-[Nva]-[dW]-[βAla]-OH)

inhibition at 1.1 µM ([4]; 1.1 μM test compound (no mark)): 70%
Compound: CC(C)C[C@@H](C(=O)N[C@H](Cc1c[nH]c2ccccc12)C(=O)N[C@H](Cc1c[nH]c2ccccc12)C(=O)O)N1C(=O)CN(C2CCCC2)C1=O [Compound 155]

inhibition at 10 µM [4]: 37%
Compound: CC(C)C[C@H](NC(=O)OC(C)(C)C)C(=O)N[C@H](Cc1c[nH]c2ccccc12)C(=O)NCCCCCC(=O)O [Compound 6] (Boc-Leu-[dW]-[Ahx]-OH)
